From patent US20060069132A1, “Azolecarboxamide herbicides” (priority 2004, published 2006)

Experiments:
[1] = test system: small flower umbrella sedge; assay: Test B flooded paddy test; format: in vivo, Cyperus difformis; settings: 125 g ai/ha, scale 0 to 100 (0 no effect, 100 complete control)
In short: (§1)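 Paddy species grown to the 2-leaf stage under flooding; blackgrass sprayed postemergence at 2–18 cm (1- to 4-leaf stage). Plants kept in a greenhouse for 13 to 15 days, then visually rated against controls on 0 (no effect) to 100 (complete control).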

wheat = assay: Test B postemergence herbicide test; format: in vivo, Triticum aestivum; set-up: key to Wheat plant response rating: 0 = no effect, 100 = complete control
In short: (§2)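 Scale 0–100: zero equals no visible effect, 100 complete control, judged by eye relative to controls. Timing: 13 to 15 days in greenhouse post-treatment. Growth stage at spraying: two leaves (paddy) or one to four leaves, 2–18 cm (postemergence).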

wild oat = assay: Test B postemergence herbicide test; format: in vivo, Avena fatua
In short: as §2

velvetleaf = assay: Test B pre-/postemergence herbicide test; format: in vivo, Abutilon theophrasti
In short: (§3)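 Flooded paddy rice and barnyardgrass were treated at the 2-leaf stage; upland plantings received compound either on sown seed or on 1- to 4-leaf seedlings. All were kept 13–15 days in a greenhouse and scored visually, 0–100, relative to untreated plants.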

rice = assay: Test B flooded paddy test; format: in vivo, Oryza sativa; settings: 125 g ai/ha, scale 0 to 100 (0 no effect, 100 complete control)
In short: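 After treating 2-leaf paddy plants or 2–18 cm postemergence plants (1 to 4 leaves) with formulated chemical, researchers kept them in a greenhouse for 13–15 days. Effects were judged visually versus controls: 0 indicates none, 100 total control.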

ducksalad = assay: Test B flooded paddy test; format: in vivo, Heteranthera limosa; settings: 125 g ai/ha, scale 0 to 100 (0 no effect, 100 complete control)
In short: as §1

large crabgrass = assay: Test B pre-/postemergence herbicide test; format: in vivo, Digitaria sanguinalis
In short: as §3

cocklebur = assay: Test B pre-/postemergence herbicide test; format: in vivo, Xanthium strumarium
In short: (§4)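 Test chemicals in a non-phytotoxic solvent mixture with surfactant were applied preemergence to seeded species and postemergence to plants 2-18 cm tall (1- to 4-leaf stage); rice and barnyardgrass were also tested in a flooded paddy at the 2-leaf stage. Visual rating versus controls after 13-15 days in greenhouse, scale 0 (no effect) to 100 (complete control).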

morningglory = assay: Test B pre-/postemergence herbicide test; format: in vivo, Ipomoea coccinea
In short: as §4

barnyardgrass [2] = assay: Test B flooded paddy test; format: in vivo, Echinochloa crus-galli; settings: 125 g ai/ha, scale 0 to 100 (0 no effect, 100 complete control)
In short: as §1

barnyardgrass [3] = assay: Test B pre-/postemergence herbicide test; format: in vivo, Echinochloa crus-galli; settings: Postemergence, scale 0 (no effect) to 100 (complete control)
In short: as §4

lambsquarters = assay: Test B pre-/postemergence herbicide test; format: in vivo, Chenopodium album
In short: as §3

blackgrass = assay: Test B postemergence herbicide test; format: in vivo, Alopecurus myosuroides
In short: as §1

giant foxtail = assay: Test B pre-/postemergence herbicide test; format: in vivo, Setaria faberi
In short: as §3

pigweed = assay: Test B pre-/postemergence herbicide test; format: in vivo, Amaranthus retroflexus
In short: as §3

Surinam grass = assay: Test B pre-/postemergence herbicide test; format: in vivo, Urochloa decumbens
In short: as §3

corn = assay: Test B pre-/postemergence herbicide test; format: in vivo, Zea mays
In short: as §3

[4] = 500 g ai/ha, scale 0 to 100, 0 no effect, 100 complete control, preemergence
[5] = Postemergence, 500 g ai/ha, scale 0 (no effect) to 100 (complete control)
[6] = postemergence, 125 g ai/ha, scale 0 to 100

| Structure (SMILES) | Sedge, Umbrella plant response rating [1] | Wheat plant response rating (wheat; [4]) | Wheat plant response rating (wheat; [5]) | Oat, Wild plant response rating (wild oat; [5]) | Velvetleaf plant response rating (velvetleaf; [5]) | Velvetleaf plant response rating (velvetleaf; [6]) | Rice plant response rating (rice) | Ducksalad plant response rating (ducksalad) | Crabgrass, Large plant response rating (large crabgrass; [5]) | Crabgrass, Large plant response rating (large crabgrass; [6]) | Cocklebur plant response rating (cocklebur; [5]) | Cocklebur plant response rating (cocklebur; [6]) | Morningglory plant response rating (morningglory; [5]) | Morningglory plant response rating (morningglory; [6]) | Barnyardgrass plant response rating (barnyardgrass [2]) | Barnyardgrass plant response rating (barnyardgrass [3]; 125 g ai/ha) | Barnyardgrass plant response rating (barnyardgrass [3]; 500 g ai/ha) | Lambsquarters plant response rating (lambsquarters; [5]) | Lambsquarters plant response rating (lambsquarters; [6]) | Blackgrass plant response rating (blackgrass; [5]) | also measured |
| --- | --- | --- | --- | --- | --- | --- | --- | --- | --- | --- | --- | --- | --- | --- | --- | --- | --- | --- | --- | --- | --- |
| Cc1nn(C(C)(C)C)nc1C(=O)Nc1cccc(C(=O)N(C)C)n1 [Compound 436] | 0 | 20 | 20 | 30 | 30 | 0 | 0 | 0 | 0 | 0 | 10 | 0 | 0 | 0 | 0 | 0 | 0 | 0 | 0 | 0 | Wheat plant response rating (wheat; [6]): 10; Oat, Wild plant response rating (wild oat; [6]): 10; Blackgrass plant response rating (blackgrass; [6]): 0; Foxtail, Giant plant response rating (giant foxtail; [5]): 0; Foxtail, Giant plant response rating (giant foxtail; [6]): 0; Pigweed plant response rating (pigweed; [5]): 10; Pigweed plant response rating (pigweed; [6]): 0; Surinam Grass plant response rating (Surinam grass; [5]): 0; Surinam Grass plant response rating (Surinam grass; [6]): 0; Corn plant response rating (corn; [5]): 10; Corn plant response rating (corn; [6]): 0 |
| CCNC(=O)c1cccc(NC(=O)c2nn(C(C)(C)C)nc2C)n1 [Compound 437] | 0 | 0 | 20 | 30 | 20 | 0 | 0 | 0 | 20 | 0 | 30 | 10 | 30 | 0 | 0 | 0 | 30 | 40 | 20 | 30 | Blackgrass plant response rating (blackgrass; [6]): 0; Foxtail, Giant plant response rating (giant foxtail; [5]): 30; Foxtail, Giant plant response rating (giant foxtail; [6]): 0; Pigweed plant response rating (pigweed; [5]): 30; Pigweed plant response rating (pigweed; [6]): 20; Surinam Grass plant response rating (Surinam grass; [5]): 20; Surinam Grass plant response rating (Surinam grass; [6]): 0; Corn plant response rating (corn; [5]): 30; Corn plant response rating (corn; [6]): 0 |
| C=CCNC(=O)c1cccc(NC(=O)c2nn(C(C)(C)C)nc2C)n1 [Compound 438] | 0 | 0 | 30 | 40 | 30 | 0 | 0 | 0 | 0 | 0 | 20 | 20 | 50 | 40 | 0 | 0 | 0 | 10 | 10 | 30 | Wheat plant response rating (wheat; [6]): 20; Oat, Wild plant response rating (wild oat; [6]): 30; Blackgrass plant response rating (blackgrass; [6]): 20; Foxtail, Giant plant response rating (giant foxtail; [5]): 20; Foxtail, Giant plant response rating (giant foxtail; [6]): 0; Pigweed plant response rating (pigweed; [5]): 30; Pigweed plant response rating (pigweed; [6]): 10; Surinam Grass plant response rating (Surinam grass; [5]): 0; Surinam Grass plant response rating (Surinam grass; [6]): 0; Corn plant response rating (corn; [5]): 40; Corn plant response rating (corn; [6]): 30 |
